Reference: ChEMBL document CHEMBL1150406, “Novel triterpenoid from Citrus aurantium L. possesses chemopreventive properties against human colon cancer cells” (Bioorg Med Chem, 2008)
The source made the active and inactive calls. The rule behind the calls is not given here.

What was measured:
[1] = system: HT-29; test: Cell cycle arrest in human HT29 cells by accumulation at G2/M phase at 5 uM after 48 hrs by flow cytometry; type: functional
[2] = Growth inhibition of monkey COS1 cells by flow cytometry; type: cell-based; details: cos-1
[3] = system: HT-29; test: Cell cycle arrest in human HT29 cells by accumulation at G0/G1 phase at 10 uM after 48 hrs by flow cytometry; type: functional
[4] = system: HT-29; test: Cytotoxicity against human HT29 cells at 2.5 uM after 48 hrs by MTT assay; type: functional, cell-based
[5] = system: HT-29; test: Cell cycle arrest in human HT29 cells by accumulation at S phase at 10 uM after 48 hrs by flow cytometry; type: functional
[6] = system: HT-29; test: Cell cycle arrest in human HT29 cells by accumulation at G2/M phase at 10 uM after 48 hrs by flow cytometry; type: functional
[7] = system: HT-29; test: Cell cycle arrest in human HT29 cells assessed as background aggregates and debris at 5 uM after 48 hrs by flow cytometry; type: functional
[8] = system: HT-29; test: Cytotoxicity against human HT29 cells at 5 uM after 72 hrs by MTT assay; type: functional
[9] = system: HT-29; test: Cell cycle arrest in human HT29 cells by accumulation at S phase at 5 uM after 48 hrs by flow cytometry; type: functional
[10] = system: HT-29; test: Cell cycle arrest in human HT29 cells assessed as background aggregates and debris at 10 uM after 48 hrs by flow cytometry; type: functional
[11] = system: HT-29; test: Induction of apoptosis in human HT29 cells at 10 uM by nuclear staining method; type: functional, cell-based
[12] = system: HT-29; test: Cell cycle arrest in human HT29 cells by accumulation at G0/G1 phase at 5 uM after 48 hrs by flow cytometry; type: functional
[13] = system: HT-29; test: Cytotoxicity against human HT29 cells at 10 uM after 24 hrs by MTT assay; type: functional, cell-based
[14] = system: HT-29; test: Cytotoxicity against human HT29 cells after 48 hrs by MTT assay; type: functional, cell-based

SMILES | Activity [1] | Activity [2] | Activity [3] | Activity [4] | Activity [5] | Activity [6] | Activity [7] | Activity [8] | Activity [9] | Activity [10] | Activity [11] | Activity [12] | Activity [13] | Activity [14]
CC1(C)OC[C@@]2([C@@H](O)CC(=O)O)[C@H]3CC[C@@]4(C)[C@H](c5ccoc5)OC(=O)[C@H]5O[C@]54[C@]3(C)C(=O)C[C@@H]12 [ISOLIMONOIC ACID] | 6.1% | Not Active | 69.9% | Active | 12.7% | 17.4% | 34.8% | 20% | 4% | 75.5% | Active | 91% | – | –
CC(C)(O)[C@@H]1CC(=O)[C@]2(C)[C@H](CC[C@@]3(C)[C@H](C4=CC(O)OC4=O)OC(=O)[C@H]4O[C@]432)[C@]12COC(=O)C[C@@H]2O (stereo partly specified) [ICHANEXIC ACID] | 8.7% | Not Active | 70.2% | Active | 6% | 23.8% | 42.9% | 20% | 4.1% | 75.1% | Active | 91.3% | Active | Active
